ChEMBL document CHEMBL3739409, “Bioactive ent-Pimarane and ent-Abietane Diterpenoids from the Whole Plants of Chloranthus henryi” (J Nat Prod, 2015)
In brackets after ≈: the same amount, converted by molar mass.

How the values were obtained:
Candida albicans [1] = experiment: Antifungal activity against Candida albicans SC5314 by broth microdilution method; assay type: functional
Candida albicans [2] = experiment: Antifungal activity against Candida albicans SC5314 assessed as inhibition of yeast to hyphae conversion after 4 hrs by microscopic analysis; assay type: functional, organism-based; conditions: SC5314, 4 h

CC(C)c1ccc2c(c1)C(=O)CC1C(C)(C)[C@@H](O)CC[C@]21C (stereo partly drawn)
MIC50 (Candida albicans [1]): 427 µM (≈ 128 µg/mL)
IC50 (Candida albicans [2]): 97.3 µM

CO[C@@]1(C(C)C)C=C2C(=O)C[C@@H]3C(C)(C)[C@H](O)CC[C@@]3(C)[C@@H]2C[C@H]1O
MIC50 (Candida albicans [1]): 731 µM (≈ 256 µg/mL)
IC50 (Candida albicans [2]): 334 µM

C=C[C@]1(C)C=C2[C@@H](CC1)[C@]1(C)CC[C@@H](O)C(C)(C)[C@H]1C[C@@H]2O
IC50 (Candida albicans [2]): 399 µM

CC(C)c1ccc2c(c1)[C@H](O)CC1C(C)(C)[C@@H](O)CC[C@]21C (stereo partly drawn)
IC50 (Candida albicans [2]): 739 µM

OC(Cn1cncn1)(Cn1cncn1)c1ccc(F)cc1F [FLUCONAZOLE]
MIC50 (Candida albicans [1]): 1.6 µM (≈ 0.49 µg/mL)

C=CCc1ccc(O)c(-c2cc(CC=C)ccc2O)c1 [MAGNOLOL]
IC50 (Candida albicans [2]): 7.5 µM
